Results taken from PMC9814900 (Communications Chemistry, 2022).
Numbered stars: 1 amine (or outer) side, 2 acyl side, 3 side chain; on linkers, the order of the positions; unused ones are H or OH. Bridge positions count the residues as written; N and C are the ends. Peptide text beside a SMILES is read from it. C6F4(1,4-diyl) = Fc1c(F)c([*:2])c(F)c(F)c1[*:1]

molecular target: T1, SUMO-25-109MDM2 (Homo sapiens, UniProt Q00987); test: In-solution competition assay by biolayer interferometry (BLI); assay type: binding; settings: not given
T1 construct: the ^25-109MDM2 gene was purchased from Addgene; made in house; host or cells: E. coli Rosetta (DE3) pLysS

Compound	Kd [nM]
CC(C)C[C@H](NC(=O)[C@H](C)NC(=O)[C@H](Cc1c[nH]c2ccccc12)NC(=O)[C@H](Cc1ccc(O)cc1)NC(=O)[C@H](CCC(=O)O)NC(=O)[C@H](C)NC(=O)[C@H](Cc1ccccc1)NC(=O)[C@H](CO)NC(=O)[C@@H](N)[C@@H](C)O)C(=O)N[C@@H](CC(C)C)C(=O)N[C@@H](CO)C(=O)N[C@@H](C)C(N)=O [Peptide 8] (H-TSFAEYWALLSA-NH2)	0.7 ± 0.5
CC(C)C[C@H](NC(=O)[C@@H]1CSc2c(F)c(F)c(c(F)c2F)SC[C@H](NC(=O)[C@H](C)NC(=O)[C@H](Cc2ccccc2)NC(=O)[C@H](CO)NC(=O)[C@@H](N)[C@@H](C)O)C(=O)N[C@@H](Cc2ccc(O)cc2)C(=O)N[C@@H](Cc2c[nH]c3ccccc23)C(=O)N[C@@H](CC(N)=O)C(=O)N1)C(=O)N[C@@H](CO)C(=O)N1CCC[C@H]1C(N)=O [Peptide 13] (H-TSFACYWNCLSP-NH2; linker 5-9 via C6F4(1,4-diyl))	36 ± 8.5

same assay, conditions: Figs 3-5; peptide pre-incubated 30 min with ~50 or ~100 nM SUMO-25-109MDM2 in PBS, 0.05% Tween-20, 1 mg/mL BSA; sensor loaded with Biotin-PEG4-p53(15-29); 30 °C; response after 2 min; read-out: KD, competition assay using BLI

Compound	Kd [nM]
CC(C)C[C@H](NC(=O)[C@H](CC(N)=O)NC(=O)[C@H](Cc1c[nH]c2ccccc12)NC(=O)[C@H](C)NC(=O)[C@H](CCC(=O)O)NC(=O)[C@H](C)NC(=O)[C@H](Cc1ccccc1)NC(=O)[C@H](CO)NC(=O)[C@@H](N)[C@@H](C)O)C(=O)N[C@@H](C)C(=O)N[C@@H](CO)C(=O)N1CCC[C@H]1C(N)=O [Peptide 6] (H-TSFAEAWNLASP-NH2)	1440 ± 390
CC(C)C[C@H](NC(=O)[C@H](CC(N)=O)NC(=O)[C@H](Cc1c[nH]c2ccccc12)NC(=O)[C@@H]1CSc2c(F)c(F)c(c(F)c2F)SC[C@H](NC(=O)[C@@H](N)[C@@H](C)O)C(=O)N[C@@H](Cc2ccccc2)C(=O)N[C@@H](C)C(=O)N[C@@H](CCC(=O)O)C(=O)N1)C(=O)N[C@@H](CC(C)C)C(=O)N[C@@H](CO)C(=O)N1CCC[C@H]1C(N)=O [Peptide 10] (H-TCFAECWNLLSP-NH2; linker 2-6 via C6F4(1,4-diyl))	449 ± 57
CC(C)C[C@H](NC(=O)[C@H](CC(N)=O)NC(=O)[C@@H]1CSc2c(F)c(F)c(c(F)c2F)SC[C@H](NC(=O)[C@H](CO)NC(=O)[C@@H](N)[C@@H](C)O)C(=O)N[C@@H](C)C(=O)N[C@@H](CCC(=O)O)C(=O)N[C@@H](Cc2ccc(O)cc2)C(=O)N1)C(=O)N[C@@H](CC(C)C)C(=O)N[C@@H](CO)C(=O)N1CCC[C@H]1C(N)=O [Peptide 11] (H-TSCAEYCNLLSP-NH2; linker 3-7 via C6F4(1,4-diyl))	1620 ± 263
CC(C)C[C@@H]1NC(=O)[C@H](C)NC(=O)[C@@H](NC(=O)[C@H](Cc2c[nH]c3ccccc23)NC(=O)[C@H](Cc2ccc(O)cc2)NC(=O)[C@H](CCC(=O)O)NC(=O)[C@H](C)NC(=O)[C@H](Cc2ccccc2)NC(=O)[C@H](CO)NC(=O)[C@@H](N)[C@@H](C)O)CSc2c(F)c(F)c(c(F)c2F)SC[C@@H](C(N)=O)NC(=O)[C@H](CO)NC1=O [Peptide 40] (H-TSFAEYWCALSC-NH2; linker 8-12 via C6F4(1,4-diyl))	0.7 ± 0.5

same assay, conditions: supplementary binding validation; N=1; ~250 nM SUMO-25-109MDM2; read-out: KD, competition BLI assay

Compound	Kd [nM]
CC(C)C[C@H](NC(=O)[C@H](CC(N)=O)NC(=O)[C@H](Cc1c[nH]c2ccccc12)NC(=O)[C@H](Cc1ccc(O)cc1)NC(=O)[C@@H]1CSc2c(F)c(F)c(c(F)c2F)SC[C@H](N)C(=O)N[C@@H](CO)C(=O)N[C@@H](Cc2ccccc2)C(=O)N[C@@H](C)C(=O)N1)C(=O)N[C@@H](CC(C)C)C(=O)N[C@@H](CO)C(=O)N1CCC[C@H]1C(N)=O [Peptide 9] (H-CSFACYWNLLSP-NH2; linker 1-5 via C6F4(1,4-diyl))	925 ± 70

same assay, conditions: supplementary binding validation; averaged over three measurements; ~30-100 nM SUMO-25-109MDM2 as given per peptide; read-out: Averaged KD, competition BLI assay

Compound	Kd [nM]
CC(C)C[C@H](NC(=O)[C@H](CC(N)=O)NC(=O)[C@H](Cc1c[nH]c2ccccc12)NC(=O)[C@H](Cc1ccc(O)cc1)NC(=O)[C@H](C)NC(=O)[C@H](C)NC(=O)[C@H](Cc1ccccc1)NC(=O)[C@H](CO)NC(=O)[C@H](C)N)C(=O)N[C@@H](CC(C)C)C(=O)N[C@@H](CO)C(=O)N1CCC[C@H]1C(N)=O [Peptide 1] (H-ASFAAYWNLLSP-NH2)	10 ± 2.3
CC(C)C[C@H](NC(=O)[C@H](CC(N)=O)NC(=O)[C@H](Cc1c[nH]c2ccccc12)NC(=O)[C@H](C)NC(=O)[C@H](CCC(=O)O)NC(=O)[C@H](C)NC(=O)[C@H](Cc1ccccc1)NC(=O)[C@H](C)NC(=O)[C@@H](N)[C@@H](C)O)C(=O)N[C@@H](CC(C)C)C(=O)N[C@@H](CO)C(=O)N1CCC[C@H]1C(N)=O [Peptide 2] (H-TAFAEAWNLLSP-NH2)	628 ± 89
CC(C)C[C@H](NC(=O)[C@H](CC(N)=O)NC(=O)[C@H](C)NC(=O)[C@H](Cc1ccc(O)cc1)NC(=O)[C@H](CCC(=O)O)NC(=O)[C@H](C)NC(=O)[C@H](C)NC(=O)[C@H](CO)NC(=O)[C@@H](N)[C@@H](C)O)C(=O)N[C@@H](CC(C)C)C(=O)N[C@@H](CO)C(=O)N1CCC[C@H]1C(N)=O [Peptide 3] (H-TSAAEYANLLSP-NH2)	4910 ± 713
CC(C)C[C@H](NC(=O)[C@H](C)NC(=O)[C@H](CC(N)=O)NC(=O)[C@H](Cc1c[nH]c2ccccc12)NC(=O)[C@H](Cc1ccc(O)cc1)NC(=O)[C@H](C)NC(=O)[C@H](C)NC(=O)[C@H](Cc1ccccc1)NC(=O)[C@H](CO)NC(=O)[C@@H](N)[C@@H](C)O)C(=O)N[C@@H](CO)C(=O)N1CCC[C@H]1C(N)=O [Peptide 5] (H-TSFAAYWNALSP-NH2)	30 ± 3.8
CC(C)C[C@H](NC(=O)[C@H](CC(N)=O)NC(=O)[C@H](Cc1c[nH]c2ccccc12)NC(=O)[C@H](C)NC(=O)[C@H](CCC(=O)O)NC(=O)[C@H](C)NC(=O)[C@H](Cc1ccccc1)NC(=O)[C@H](CO)NC(=O)[C@@H](N)[C@@H](C)O)C(=O)N[C@@H](C)C(=O)N[C@@H](CO)C(=O)N1CCC[C@H]1C(N)=O [Peptide 6] (H-TSFAEAWNLASP-NH2)	2140 ± 390
CC(C)C[C@H](NC(=O)[C@H](CC(C)C)NC(=O)[C@H](CC(N)=O)NC(=O)[C@H](C)NC(=O)[C@H](Cc1ccc(O)cc1)NC(=O)[C@H](CCC(=O)O)NC(=O)[C@H](C)NC(=O)[C@H](Cc1ccccc1)NC(=O)[C@H](CO)NC(=O)[C@@H](N)[C@@H](C)O)C(=O)N[C@@H](C)C(=O)N1CCC[C@H]1C(N)=O [Peptide 7] (H-TSFAEYANLLAP-NH2)	1220 ± 231
CC(C)C[C@H](NC(=O)[C@H](CC(N)=O)NC(=O)[C@H](Cc1c[nH]c2ccccc12)NC(=O)[C@@H]1CSc2c(F)c(F)c(c(F)c2F)SC[C@H](NC(=O)[C@@H](N)[C@@H](C)O)C(=O)N[C@@H](Cc2ccccc2)C(=O)N[C@@H](C)C(=O)N[C@@H](CCC(=O)O)C(=O)N1)C(=O)N[C@@H](CC(C)C)C(=O)N[C@@H](CO)C(=O)N1CCC[C@H]1C(N)=O [Peptide 10] (H-TCFAECWNLLSP-NH2; linker 2-6 via C6F4(1,4-diyl))	431 ± 46
CC(C)C[C@H](NC(=O)[C@H](CC(N)=O)NC(=O)[C@@H]1CSc2c(F)c(F)c(c(F)c2F)SC[C@H](NC(=O)[C@H](CO)NC(=O)[C@@H](N)[C@@H](C)O)C(=O)N[C@@H](C)C(=O)N[C@@H](CCC(=O)O)C(=O)N[C@@H](Cc2ccc(O)cc2)C(=O)N1)C(=O)N[C@@H](CC(C)C)C(=O)N[C@@H](CO)C(=O)N1CCC[C@H]1C(N)=O [Peptide 11] (H-TSCAEYCNLLSP-NH2; linker 3-7 via C6F4(1,4-diyl))	1590 ± 315
CC(C)C[C@H](NC(=O)[C@@H]1CSc2c(F)c(F)c(c(F)c2F)SC[C@H](NC(=O)[C@H](Cc2ccccc2)NC(=O)[C@H](CO)NC(=O)[C@@H](N)[C@@H](C)O)C(=O)N[C@@H](CCC(=O)O)C(=O)N[C@@H](Cc2ccc(O)cc2)C(=O)N[C@@H](Cc2c[nH]c3ccccc23)C(=O)N1)C(=O)N[C@@H](CC(C)C)C(=O)N[C@@H](CO)C(=O)N1CCC[C@H]1C(N)=O [Peptide 12] (H-TSFCEYWCLLSP-NH2; linker 4-8 via C6F4(1,4-diyl))	26 ± 5
CC(C)C[C@@H]1NC(=O)[C@H](CC(N)=O)NC(=O)[C@H](Cc2c[nH]c3ccccc23)NC(=O)[C@@H](NC(=O)[C@H](CCC(=O)O)NC(=O)[C@H](C)NC(=O)[C@H](Cc2ccccc2)NC(=O)[C@H](CO)NC(=O)[C@@H](N)[C@@H](C)O)CSc2c(F)c(F)c(c(F)c2F)SC[C@@H](C(=O)N[C@@H](CO)C(=O)N2CCC[C@H]2C(N)=O)NC1=O [Peptide 14] (H-TSFAECWNLCSP-NH2; linker 6-10 via C6F4(1,4-diyl))	2020 ± 514
CC(C)C[C@@H]1NC(=O)[C@H](CC(N)=O)NC(=O)[C@@H](NC(=O)[C@H](Cc2ccc(O)cc2)NC(=O)[C@H](CCC(=O)O)NC(=O)[C@H](C)NC(=O)[C@H](Cc2ccccc2)NC(=O)[C@H](CO)NC(=O)[C@@H](N)[C@@H](C)O)CSc2c(F)c(F)c(c(F)c2F)SC[C@@H](C(=O)N2CCC[C@H]2C(N)=O)NC(=O)[C@H](CC(C)C)NC1=O [Peptide 15] (H-TSFAEYCNLLCP-NH2; linker 7-11 via C6F4(1,4-diyl))	1150 ± 209
CC(C)C[C@@H]1NC(=O)[C@H](CC(C)C)NC(=O)[C@@H](NC(=O)[C@H](Cc2c[nH]c3ccccc23)NC(=O)[C@H](Cc2ccc(O)cc2)NC(=O)[C@H](CCC(=O)O)NC(=O)[C@H](C)NC(=O)[C@H](Cc2ccccc2)NC(=O)[C@H](CO)NC(=O)[C@@H](N)[C@@H](C)O)CSc2c(F)c(F)c(c(F)c2F)SC[C@@H](C(N)=O)NC(=O)[C@H](CO)NC1=O [Peptide 16] (H-TSFAEYWCLLSC-NH2; linker 8-12 via C6F4(1,4-diyl))	3 ± 1.3
CC(C)C[C@H](NC(=O)[C@H](C)NC(=O)[C@@H]1CSc2c(F)c(F)c(c(F)c2F)SC[C@H](NC(=O)[C@H](Cc2ccccc2)NC(=O)[C@H](C)NC(=O)[C@H](C)N)C(=O)N[C@@H](CCC(=O)O)C(=O)N[C@@H](Cc2ccc(O)cc2)C(=O)N[C@@H](Cc2c[nH]c3ccccc23)C(=O)N1)C(=O)N[C@@H](CO)C(=O)N1CCC[C@H]1C(N)=O [Peptide 35] (H-AAFCEYWCALSP-NH2; linker 4-8 via C6F4(1,4-diyl))	316 ± 27
CC(C)C[C@H](NC(=O)[C@@H]1CSc2c(F)c(F)c(c(F)c2F)SC[C@H](NC(=O)[C@H](C)NC(=O)[C@H](Cc2ccccc2)NC(=O)[C@H](CO)NC(=O)[C@@H](N)[C@@H](C)O)C(=O)N[C@@H](Cc2ccc(O)cc2)C(=O)N[C@@H](Cc2c[nH]c3ccccc23)C(=O)N[C@@H](C)C(=O)N1)C(=O)N[C@@H](CO)C(=O)N[C@@H](C)C(N)=O [Peptide 37] (H-TSFACYWACLSA-NH2; linker 5-9 via C6F4(1,4-diyl))	1.6 ± 1.3
CC(C)C[C@@H]1NC(=O)[C@H](C)NC(=O)[C@@H](NC(=O)[C@H](Cc2c[nH]c3ccccc23)NC(=O)[C@H](Cc2ccc(O)cc2)NC(=O)[C@H](CCC(=O)O)NC(=O)[C@H](C)NC(=O)[C@H](Cc2ccccc2)NC(=O)[C@H](CO)NC(=O)[C@@H](N)[C@@H](C)O)CSc2c(F)c(F)c(c(F)c2F)SC[C@@H](C(N)=O)NC(=O)[C@H](CO)NC1=O [Peptide 40] (H-TSFAEYWCALSC-NH2; linker 8-12 via C6F4(1,4-diyl))	0.2 ± 0.1

molecular target: MDM2; test: not given; settings: KD of single alanine mutant relative to PMI; ref 3 of supplement (Li et al., J. Mol. Biol. 2010); cited from earlier work

Compound	KD ratio
ASFAEYWNLLSP [Peptide T1A]	1.9
TAFAEYWNLLSP [Peptide S2A]	8.4
TSAAEYWNLLSP [Peptide F3A]	11750
TSFAAYWNLLSP [Peptide E5A]	6.7
TSFAEAWNLLSP [Peptide Y6A]	191
TSFAEYANLLSP [Peptide W7A]	50720
TSFAEYWNALSP [Peptide L9A]	0.8
TSFAEYWNLASP [Peptide L10A]	227
TSFAEYWNLLAP [Peptide S11A]	1.2
TSFAEYWNLLSA [Peptide P12A]	0.7
